Experimental data reported in the NIST ThermoML archive (doi:10.1016/j.jct.2008.12.014).

Details: Liquid, Vibrating tube method

CC(C)O [propan-2-ol]
Details | mass density [kg/m3]
280.21 K, 117.9 kPa | 797.61
280.21 K, 439.6 kPa | 797.89
280.21 K, 938.7 kPa | 798.29
280.21 K, 1328.4 kPa | 798.62
280.21 K, 1656.6 kPa | 798.89
280.21 K, 1944.9 kPa | 799.14
280.21 K, 2440.6 kPa | 799.56
280.21 K, 2850.6 kPa | 799.88
280.21 K, 3198 kPa | 800.17
280.21 K, 3679.1 kPa | 800.56
280.21 K, 4071.1 kPa | 800.9
280.21 K, 4437.7 kPa | 801.19
280.21 K, 4832.6 kPa | 801.5
280.21 K, 5182.1 kPa | 801.8
280.21 K, 5559.1 kPa | 802.1
280.21 K, 5910 kPa | 802.39
280.21 K, 6334.9 kPa | 802.73
280.21 K, 6750.9 kPa | 803.06
280.21 K, 7592 kPa | 803.74
280.21 K, 7999 kPa | 804.07
280.21 K, 8329 kPa | 804.33
280.21 K, 8817 kPa | 804.7
280.21 K, 9350.6 kPa | 805.11
280.21 K, 9658.5 kPa | 805.38
281.21 K, 7166.5 kPa | 803.39
300.09 K, 186.7 kPa | 780.22
300.09 K, 610.5 kPa | 780.62
300.09 K, 953.4 kPa | 780.94
300.09 K, 1339.5 kPa | 781.31
300.09 K, 1722.1 kPa | 781.66
300.09 K, 2044.8 kPa | 781.96
300.09 K, 2446.4 kPa | 782.34
300.09 K, 2834.6 kPa | 782.7
300.09 K, 3224.9 kPa | 783.06
300.09 K, 3671.1 kPa | 783.47
300.09 K, 4074.1 kPa | 783.84
300.09 K, 4362.5 kPa | 784.11
300.09 K, 4771.8 kPa | 784.48
300.09 K, 5226.5 kPa | 784.89
300.09 K, 5579.2 kPa | 785.21
300.09 K, 6001.6 kPa | 785.59
300.09 K, 6427.2 kPa | 785.98
300.09 K, 6780.3 kPa | 786.29
300.09 K, 7214.7 kPa | 786.68
300.09 K, 7629.9 kPa | 787.05
300.09 K, 8020.3 kPa | 787.4
300.09 K, 8417.5 kPa | 787.75
300.09 K, 8805.7 kPa | 788.1
300.09 K, 9212.9 kPa | 788.45
300.09 K, 9621.5 kPa | 788.81
325.12 K, 202.7 kPa | 757.05
325.12 K, 609.4 kPa | 757.49
325.12 K, 960 kPa | 757.87
325.12 K, 1253.9 kPa | 758.21
325.12 K, 1638.8 kPa | 758.63
325.12 K, 2021 kPa | 759.06
325.12 K, 2328.8 kPa | 759.39
325.12 K, 3014.9 kPa | 760.15
325.12 K, 3321.4 kPa | 760.48
325.12 K, 3659.4 kPa | 760.85
325.12 K, 4004.1 kPa | 761.22
325.12 K, 4399.2 kPa | 761.65
325.12 K, 4691.2 kPa | 761.97
325.12 K, 5010.7 kPa | 762.32
325.12 K, 5383.4 kPa | 762.71
325.12 K, 5730.5 kPa | 763.08
325.12 K, 6143.6 kPa | 763.52
325.12 K, 6525.6 kPa | 763.91
325.12 K, 6903.2 kPa | 764.31
325.12 K, 7293.8 kPa | 764.72
325.12 K, 7661.9 kPa | 765.11
325.12 K, 7918.6 kPa | 765.38
325.12 K, 8254.4 kPa | 765.72
325.12 K, 8755.5 kPa | 766.24
325.15 K, 2655.8 kPa | 759.75
350.14 K, 220.4 kPa | 731.92
350.14 K, 663.4 kPa | 732.49
350.14 K, 1071.2 kPa | 733.03
350.14 K, 1412.6 kPa | 733.49
350.14 K, 1844.7 kPa | 734.07
350.14 K, 2226.7 kPa | 734.58
350.14 K, 2644.7 kPa | 735.11
350.14 K, 2842.7 kPa | 735.41
350.14 K, 3286.9 kPa | 735.99
350.14 K, 3630.7 kPa | 736.45
350.14 K, 4012.2 kPa | 736.94
350.14 K, 4394.6 kPa | 737.43
350.14 K, 4757.6 kPa | 737.91
350.14 K, 5197.9 kPa | 738.48
350.14 K, 5577.9 kPa | 738.96
350.14 K, 5939.3 kPa | 739.42
350.14 K, 6321.3 kPa | 739.89
350.14 K, 6730.9 kPa | 740.41
350.14 K, 7119.7 kPa | 740.89
350.14 K, 7564.4 kPa | 741.45
350.14 K, 7988.5 kPa | 741.97
350.14 K, 8472.5 kPa | 742.55
350.14 K, 8925.8 kPa | 743.13
350.14 K, 9280.8 kPa | 743.56
350.14 K, 9676.3 kPa | 744.05
375.01 K, 349.5 kPa | 702.23
375.01 K, 703.3 kPa | 702.82
375.01 K, 1046.8 kPa | 703.38
375.01 K, 1437.5 kPa | 704.01
375.01 K, 1791.6 kPa | 704.58
375.01 K, 2161.7 kPa | 705.16
375.01 K, 2545.7 kPa | 705.76
375.01 K, 2909.9 kPa | 706.34
375.01 K, 3364.1 kPa | 707.04
375.01 K, 3677.6 kPa | 707.53
375.01 K, 4083.2 kPa | 708.16
375.01 K, 4515.7 kPa | 708.82
375.01 K, 4853.5 kPa | 709.33
375.01 K, 5280.2 kPa | 709.98
375.01 K, 5646.9 kPa | 710.53
375.01 K, 6138.1 kPa | 711.26
375.01 K, 6447.1 kPa | 711.73
375.01 K, 6880.9 kPa | 712.37
375.01 K, 7269.8 kPa | 712.94
375.01 K, 7772.4 kPa | 713.68
375.01 K, 8119.2 kPa | 714.18
375.01 K, 8557.2 kPa | 714.81
375.01 K, 8987.3 kPa | 715.42
375.01 K, 9423.8 kPa | 716.04
375.01 K, 9842.2 kPa | 716.64
392.57 K, 407.6 kPa | 679.26
392.57 K, 888.7 kPa | 680.18
392.57 K, 1171.4 kPa | 680.72
392.57 K, 1526.6 kPa | 681.39
392.57 K, 1897.4 kPa | 682.08
392.57 K, 2272.3 kPa | 682.77
392.57 K, 2619.1 kPa | 683.41
392.57 K, 3050.4 kPa | 684.2
392.57 K, 3411.2 kPa | 684.86
392.57 K, 3835 kPa | 685.63
392.57 K, 4095.7 kPa | 686.12
392.57 K, 4524.9 kPa | 686.89
392.57 K, 4902.8 kPa | 687.57
392.57 K, 5283.5 kPa | 688.24
392.57 K, 5775.9 kPa | 689.09
392.57 K, 6039.6 kPa | 689.55
392.57 K, 6476.6 kPa | 690.3
392.57 K, 6889.7 kPa | 691.01
392.57 K, 7348 kPa | 691.78
392.57 K, 7728 kPa | 692.42
392.57 K, 8172.7 kPa | 693.17
392.57 K, 8598.3 kPa | 693.88
392.57 K, 9018.5 kPa | 694.57
392.57 K, 9405 kPa | 695.2
392.57 K, 9837.9 kPa | 695.89
